For assay [1], the system named is blood flow in the pancreas capillary vessel. Kind of assay: Bioassay in anesthetized dogs: blood flow in the pancreas capillary vessel (laser-Doppler perfusion monitor). The format is in vivo, mongrel dogs. As to the method:
The synthetic hCCK-33 was concurrently subjected to the bioassay with synthetic hCCK-8 to determine the activity. The bioassay was carried out by measuring the blood flow in the pancreas capillary vessel and the protein release from pancreas using a group of four mongrel dogs anesthesized with pentobarbital. The blood flow in the pancreas capillary vessel was measured using a laser-Doppler perfusion monitor and the protein concentration in the pancreas was determined according to the method of O. H. Lowry, N. J. Rosebrough, A. L. Farr and R. J. Randall, J. Biol. Chem. 193, 265 (1951). Bolus injections of 1.0, 3.125, 6.25, 12.5, 25, 50, 100 and 200 picomoles per kg body weight of the synthetic hCCK-33 and CCK-8 were given through a femoral vein catheter each at an interval of 60 minutes. […] The increasing effect could be noted even with the lowest dose of 3.125 picomoles/kg and the highest effect was obtained with the dose of 200 picomoles/kg. […] The color intensity by the ninhydrin reaction was determined using a Shimadzu Dual Wavelength TLC Scanner Model CS-900. […] The blood flow in pancreas capillary vessel was monitored using a laser-Doppler perfusion monitor (Model LD 5000 manufactured by Seattle Model Pacific Co., Wash., U.S.A.).

Assay [2] has as its system protein release from pancreas. Kind of assay: Bioassay in anesthetized dogs: protein release from pancreas (Lowry method). The format is in vivo, mongrel dogs. As to the method: The synthetic hCCK-33 was concurrently subjected to the bioassay with synthetic hCCK-8 to determine the activity. The bioassay was carried out by measuring the blood flow in the pancreas capillary vessel and the protein release from pancreas using a group of four mongrel dogs anesthesized with pentobarbital. The blood flow in the pancreas capillary vessel was measured using a laser-Doppler perfusion monitor and the protein concentration in the pancreas was determined according to the method of O. H. Lowry, N. J. Rosebrough, A. L. Farr and R. J. Randall, J. Biol. Chem. 193, 265 (1951). Bolus injections of 1.0, 3.125, 6.25, 12.5, 25, 50, 100 and 200 picomoles per kg body weight of the synthetic hCCK-33 and CCK-8 were given through a femoral vein catheter each at an interval of 60 minutes. […] The increasing effect could be noted even with the lowest dose of 3.125 picomoles/kg and the highest effect was obtained with the dose of 200 picomoles/kg. The activity of the synthetic hCCK-33 was 92% of that of the synthetic CCK-8 on the molar basis in respect of the effects on the blood flow in the pancreas capillary vessel and the protein release from pancreas. […] Since the ratio of the activity of the unsulfated hCCK-33 to the activity of CCK-8, taken as unity on the molar basis, was 0.074 in the aforementioned assay with dogs, it was concluded that an important role is played by the sulfated sites in the molecules having influences on the in vivo activity of CCKs. FIG. 6 illustrates the increase in the protein release from pancreas of an anesthetized dog in response to these 3 kinds of CCK-peptides.

Assay [3] concerns gastric juice, pepsin release and pancreas secretion. Kind of assay: Gastric juice, pepsin release and pancreas secretion in living rats. The format is in vivo. To be noted: living samples of rats.
Assay [4] deals with excised gastric tissues. Kind of assay: Stimulation of pepsinogen secretion from excised gastric tissues of guinea pigs. The format is cell-based.
Assay [5] can be described thus: Activity compared with swine CCK-33 (test not specified). To be noted: conclusion drawn through CCK-8. On the procedure: Bolus injections of 1.0, 3.125, 6.25, 12.5, 25, 50, 100 and 200 picomoles per kg body weight of the synthetic hCCK-33 and CCK-8 were given through a femoral vein catheter each at an interval of 60 minutes. […] The increasing effect could be noted even with the lowest dose of 3.125 picomoles/kg and the highest effect was obtained with the dose of 200 picomoles/kg. The activity of the synthetic hCCK-33 was 92% of that of the synthetic CCK-8 on the molar basis in respect of the effects on the blood flow in the pancreas capillary vessel and the protein release from pancreas. […] Since the ratio of the activity of the unsulfated hCCK-33 to the activity of CCK-8, taken as unity on the molar basis, was 0.074 in the aforementioned assay with dogs, it was concluded that an important role is played by the sulfated sites in the molecules having influences on the in vivo activity of CCKs.

Where [6] appears, read: bolus injection through femoral vein catheter, 1.0-200 picomoles per kg.
Setting [7] is: bolus injections 1.0-200 picomoles per kg.

Non-standard residues stand in square brackets, D forms with d. Residues, ends and D or L forms follow the SMILES beside them. sY = N[C@@H](Cc1ccc(OS(=O)(=O)O)cc1)C(=O)O

As to `CC[C@H](C)[C@H](NC(=O)[C@H](CCCNC(=N)N)NC(=O)[C@H](Cc1c[nH]cn1)NC(=O)[C@H](CO)NC(=O)[C@@H]1CCCN1C(=O)[C@H](CC(=O)O)NC(=O)[C@H](CC(C)C)NC(=O)[C@H](CC(N)=O)NC(=O)[C@H](CCC(N)=O)NC(=O)[C@H](CC(C)C)NC(=O)[C@H](CC(N)=O)NC(=O)[C@H](CCCCN)NC(=O)[C@@H](NC(=O)[C@@H](NC(=O)[C@H](CO)NC(=O)[C@H](CCSC)NC(=O)[C@H](CCCNC(=N)N)NC(=O)CNC(=O)[C@H](CO)NC(=O)[C@@H]1CCCN1C(=O)[C@H](C)NC(=O)[C@@H](N)CCCCN)[C@@H](C)CC)C(C)C)C(=O)N[C@@H](CO)C(=O)N[C@@H](CC(=O)O)C(=O)N[C@@H](CCCNC(=N)N)C(=O)N[C@@H](CC(=O)O)C(=O)N[C@@H](Cc1ccc(OS(=O)(=O)O)cc1)C(=O)N[C@@H](CCSC)C(=O)NCC(=O)N[C@@H](Cc1c[nH]c2ccccc12)C(=O)N[C@@H](CCSC)C(=O)N[C@@H](CC(=O)O)C(=O)N[C@@H](Cc1ccccc1)C(N)=O` [synthetic hCCK-33] (H-KAPSGRMSIVKNLQNLDPSHRISDRD[sY]MGWMDF-NH2), the “activity relative to synthetic CCK-8 on the molar basis, blood flow in the pancreas capillary vessel” value in assay [1] (setting [6]) is 92%. Moreover, the “pancreas blood flow, dose dependence” value in assay [1] (setting [7]) is listed as “increased in parallel with the dose”. For the same compound, in assay [2] (bolus injection), the “dose giving the highest effect” value is 200 picomoles/kg and the “lowest dose at which the increasing effect could be noted” value was 3.125 picomoles/kg. Besides, the “activity relative to synthetic CCK-8 on the molar basis, protein release from pancreas” value in assay [2] (setting [6]) is given as 92%. Further, the “protein release from pancreas, dose dependence” value in assay [2] (setting [7]) is listed as “increased in parallel with the dose”. Besides, in assay [3], the “activity relative to CCK-8 on the molar basis, gastric juice, pepsin release and pancreas secretion” value is given as “about two to three times more active than the CCK-8”. Besides, in assay [4], the “activity relative to CCK-8 on the molar basis, stimulation of pepsinogen secretion” value is reported as “about the same as the CCK-8”. The “activity compared with natural swine CCK-33” value in assay [5] was “comparable with or even higher than”.

For the origin of these results see patent publication US5059679A, “Method of selectively sulfating peptides” (Shin-Etsu CHemical Co., Ltd., priority 1988, dated 1991).
